Experimental data published in ChEMBL document CHEMBL1629626, “Ultrastructural effects of oritavancin on methicillin-resistant Staphylococcus aureus and vancomycin-resistant Enterococcus” (2009).
Activity calls are given as the source filed them. The calls are words filed in the database; no cut-off is given here.

What was measured:
Enterococcus faecalis [1] = assay: Antimicrobial activity against Enterococcus faecalis clinical isolate A5241515 assessed as formation of extensive fibrils around the cell at 0.12 ug/ml after 3 hrs by transmission electron microscopy; type: functional, organism-based
Staphylococcus aureus [2] = assay: Antimicrobial activity against methicillin-resistant Staphylococcus aureus ATCC 43300 assessed as reduction in cell counts at 1 ug/ml after 10 mins; type: functional
Enterococcus faecalis [3] = assay: Antimicrobial activity against Enterococcus faecalis clinical isolate A5241515 assessed as growth inhibition at 0.12 ug/ml upto 3 hrs; type: functional, organism-based
Enterococcus faecalis [4] = assay: Antimicrobial activity against Enterococcus faecalis clinical isolate A5241515 assessed as growth inhibition at 1 ug/ml upto 6 hrs; type: functional, organism-based
Staphylococcus aureus [5] = assay: Antimicrobial activity against methicillin-resistant Staphylococcus aureus ATCC 43300 assessed as septal deformation at 1 ug/ml after 10 mins by transmission electron microscopy; type: functional, organism-based
Staphylococcus aureus [6] = assay: Antimicrobial activity against methicillin-resistant Staphylococcus aureus ATCC 43300 assessed as aberrant septum formation at 1 ug/ml after 10 mins by transmission electron microscopy; type: functional, organism-based
Staphylococcus aureus [7] = assay: Antimicrobial activity against methicillin-resistant Staphylococcus aureus ATCC 43300 assessed as loss of septal midline at 1 ug/ml after 10 mins by transmission electron microscopy; type: functional, organism-based
Staphylococcus aureus [8] = assay: Antimicrobial activity against methicillin-resistant Staphylococcus aureus ATCC 43300 assessed as formation of membrane inclusions at 1 ug/ml after 10 mins by transmission electron microscopy; type: functional, organism-based
Enterococcus faecalis [9] = assay: Antimicrobial activity against Enterococcus faecalis clinical isolate A5241515 assessed as cell ghost formation at 0.12 ug/ml after 3 hrs by transmission electron microscopy; type: functional, organism-based
Staphylococcus aureus [10] = assay: Antimicrobial activity against methicillin-resistant Staphylococcus aureus ATCC 43300 assessed as cell wall thickening at 1 ug/ml after 10 mins by transmission electron microscopy; type: functional, organism-based
Enterococcus faecalis [11] = assay: Antimicrobial activity against Enterococcus faecalis clinical isolate A5241515 assessed as formation of large membrane inclusions at 1 ug/ml after 6 hrs by transmission electron microscopy; type: functional, organism-based
Enterococcus faecalis [12] = assay: Antimicrobial activity against Enterococcus faecalis clinical isolate A5241515 assessed as septal deformation at 0.12 ug/ml after 3 hrs by transmission electron microscopy; type: functional, organism-based
Staphylococcus aureus [13] = assay: Antimicrobial activity against methicillin-resistant Staphylococcus aureus ATCC 43300 assessed as reduction in cell counts at 16 ug/ml after 3 hrs; type: functional
Staphylococcus aureus [14] = assay: Antimicrobial activity against methicillin-resistant Staphylococcus aureus ATCC 43300 assessed as septal deformation at 16 ug/ml after 3 hrs by transmission electron microscopy; type: functional, organism-based
Staphylococcus aureus [15] = assay: Antimicrobial activity against methicillin-resistant Staphylococcus aureus ATCC 43300 assessed as aberrant septum formation at 16 ug/ml after 3 hrs by transmission electron microscopy; type: functional, organism-based
Staphylococcus aureus [16] = assay: Antimicrobial activity against methicillin-resistant Staphylococcus aureus ATCC 43300 assessed as loss of septal midline at 16 ug/ml after 3 hrs by transmission electron microscopy; type: functional, organism-based
Staphylococcus aureus [17] = assay: Antimicrobial activity against methicillin-resistant Staphylococcus aureus ATCC 43300 assessed as formation of closing iris septal growth pattern at 16 ug/ml after 3 hrs by transmission electron microscopy; type: functional, organism-based
Staphylococcus aureus [18] = assay: Antimicrobial activity against methicillin-resistant Staphylococcus aureus ATCC 43300 assessed as cell wall thickening at 16 ug/ml after 3 hrs by transmission electron microscopy; type: functional, organism-based

With `CN[C@H](CC(C)C)C(=O)N[C@H]1C(=O)N[C@@H](CC(N)=O)C(=O)N[C@H]2C(=O)N[C@H]3C(=O)N[C@H](C(=O)N[C@H](C(=O)O)c4cc(O)cc(O)c4-c4cc3ccc4O)[C@H](O[C@H]3C[C@](C)(N)[C@@H](O)[C@H](C)O3)c3ccc(c(Cl)c3)Oc3cc2cc(c3O[C@@H]2O[C@H](CO)[C@@H](O)[C@H](O)[C@H]2O[C@H]2C[C@](C)(NCc3ccc(-c4ccc(Cl)cc4)cc3)[C@@H](O)[C@H](C)O2)Oc2ccc(cc2Cl)[C@H]1O` [ORITAVANCIN] the Activity (Enterococcus faecalis [1]) was “Active”, the “fold change (FC)” value (Staphylococcus aureus [2]) was 0.35 and the Activity (Enterococcus faecalis [3]) was “Active”. The Activity (Enterococcus faecalis [4]) was “Active”, the Activity (Staphylococcus aureus [5]) was “Active” and the Activity (Staphylococcus aureus [6]) was “Active”. For the same compound, the Activity (Staphylococcus aureus [7]) was “Active”, the Activity (Staphylococcus aureus [8]) was “Active” and the Activity (Enterococcus faecalis [9]) was “Active”. The Activity (Staphylococcus aureus [10]) was “Active”, the Activity (Enterococcus faecalis [11]) was “Active” and the Activity (Enterococcus faecalis [12]) was “Active”.

`CN[C@H](CC(C)C)C(=O)N[C@H]1C(=O)N[C@@H](CC(N)=O)C(=O)N[C@H]2C(=O)N[C@H]3C(=O)N[C@H](C(=O)N[C@H](C(=O)O)c4cc(O)cc(O)c4-c4cc3ccc4O)[C@H](O)c3ccc(c(Cl)c3)Oc3cc2cc(c3O[C@@H]2O[C@H](CO)[C@@H](O)[C@H](O)[C@H]2O[C@H]2C[C@](C)(N)[C@H](O)[C@H](C)O2)Oc2ccc(cc2Cl)[C@H]1O` [VANCOMYCIN] was tested, and the “fold change (FC)” value (Staphylococcus aureus [13]) was 0.26, the Activity (Staphylococcus aureus [14]) was “inactive” and the Activity (Staphylococcus aureus [15]) was “inactive”. The Activity (Staphylococcus aureus [16]) was “inactive”, the Activity (Staphylococcus aureus [17]) was “Active” and the Activity (Staphylococcus aureus [18]) was “Active”.
